# Reference: PubChem BioAssay (NCI)
#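 Cells were grown in 96-well plates and exposed to each compound for 48 hours at five concentrations; endpoints were interpolated linearly between bracketing concentrations, or set to the highest concentration if not reached. TGI marks complete inhibition of growth.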
# What was measured:
# Assay in all cases: NCI-60 cell line screen, 48 h
# KM12 colon = system: KM12 colon
# NCI-H460 lung = system: NCI-H460 lung
# SN12C renal = system: SN12C renal
# UO-31 renal = system: UO-31 renal
# BT-549 breast = system: BT-549 breast
# SK-MEL-5 melanoma = system: SK-MEL-5 melanoma
# SK-MEL-2 melanoma = system: SK-MEL-2 melanoma
# NCI-H23 lung = system: NCI-H23 lung
# SF-295 CNS = system: SF-295 CNS
# RPMI-8226 leukemia = system: RPMI-8226 leukemia
# HT29 colon = system: HT29 colon
# U251 CNS = system: U251 CNS
# OVCAR-8 ovarian = system: OVCAR-8 ovarian
# HL-60(TB) leukemia = system: HL-60(TB) leukemia
# SF-268 CNS = system: SF-268 CNS
# HCT-116 colon = system: HCT-116 colon
# TK-10 renal = system: TK-10 renal
# OVCAR-5 ovarian = system: OVCAR-5 ovarian
# MDA-N = system: MDA-N
# NCI-H522 lung = system: NCI-H522 lung
# MDA-MB-231 breast = system: MDA-MB-231 breast
# SR leukemia = system: SR leukemia
# MCF7 breast = system: MCF7 breast
# MDA-MB-435 = system: MDA-MB-435
# HOP-92 NSCLC = system: HOP-92 NSCLC
# SK-MEL-28 melanoma = system: SK-MEL-28 melanoma
# UACC-257 melanoma = system: UACC-257 melanoma
# CCRF-CEM leukemia = system: CCRF-CEM leukemia
# RXF 393 renal = system: RXF 393 renal
# M14 melanoma = system: M14 melanoma
# K-562 leukemia = system: K-562 leukemia
# UACC-62 melanoma = system: UACC-62 melanoma
# HOP-62 NSCLC = system: HOP-62 NSCLC
# OVCAR-3 ovarian = system: OVCAR-3 ovarian
# PC-3 prostate = system: PC-3 prostate
# NCI-H226 lung = system: NCI-H226 lung
# SW-620 colon = system: SW-620 colon
# DU-145 prostate = system: DU-145 prostate
# MOLT-4 leukemia = system: MOLT-4 leukemia
# OVCAR-4 ovarian = system: OVCAR-4 ovarian
# LOX IMVI melanoma = system: LOX IMVI melanoma
# EKVX NSCLC = system: EKVX NSCLC
# HCT-15 colon = system: HCT-15 colon
# SNB-19 CNS = system: SNB-19 CNS
# IGROV1 ovarian = system: IGROV1 ovarian
# 786-0 renal = system: 786-0 renal
# HS 578T breast = system: HS 578T breast
# MALME-3M melanoma = system: MALME-3M melanoma
# ACHN renal = system: ACHN renal
# T-47D breast = system: T-47D breast
# CAKI-1 renal = system: CAKI-1 renal
# A549 NSCLC = system: A549 NSCLC
# A498 renal = system: A498 renal
# SK-OV-3 ovarian = system: SK-OV-3 ovarian
# SF-539 CNS = system: SF-539 CNS
# NCI/ADR-RES ovarian = system: NCI/ADR-RES ovarian
# SNB-75 CNS = system: SNB-75 CNS
# HCC-2998 colon = system: HCC-2998 colon
# COLO 205 colon = system: COLO 205 colon
smiles,measurement,setting,value
C=C1C[C@@H](O)[C@@H](Br)C(C)(C)[C@@]12C=CC(O)(CBr)CC2 (stereo not given in full),TGI,KM12 colon,15.1 µM
same,TGI,NCI-H460 lung,> 100 µM
same,TGI,SN12C renal,> 100 µM
same,TGI,UO-31 renal,> 100 µM
same,TGI,BT-549 breast,83.7 µM
same,TGI,SK-MEL-5 melanoma,> 100 µM
same,TGI,SK-MEL-2 melanoma,> 100 µM
same,TGI,NCI-H23 lung,> 100 µM
same,TGI,SF-295 CNS,> 100 µM
same,TGI,RPMI-8226 leukemia,70.7 µM
same,TGI,HT29 colon,> 100 µM
same,TGI,U251 CNS,> 100 µM
same,TGI,OVCAR-8 ovarian,> 100 µM
same,TGI,HL-60(TB) leukemia,> 100 µM
same,TGI,SF-268 CNS,> 100 µM
same,TGI,HCT-116 colon,> 100 µM
same,TGI,TK-10 renal,> 100 µM
same,TGI,OVCAR-5 ovarian,> 100 µM
same,TGI,MDA-N,> 100 µM
same,TGI,NCI-H522 lung,> 100 µM
same,TGI,MDA-MB-231 breast,93.5 µM
same,TGI,SR leukemia,77.6 µM
same,TGI,MCF7 breast,> 100 µM
same,TGI,MDA-MB-435,> 100 µM
same,TGI,HOP-92 NSCLC,61 µM
same,TGI,SK-MEL-28 melanoma,> 100 µM
same,TGI,UACC-257 melanoma,> 100 µM
same,TGI,CCRF-CEM leukemia,64.2 µM
same,TGI,RXF 393 renal,> 100 µM
same,TGI,M14 melanoma,> 100 µM
same,TGI,K-562 leukemia,> 100 µM
same,TGI,UACC-62 melanoma,> 100 µM
same,TGI,HOP-62 NSCLC,> 100 µM
same,TGI,OVCAR-3 ovarian,> 100 µM
same,TGI,PC-3 prostate,9.72 µM
same,TGI,NCI-H226 lung,> 100 µM
same,TGI,SW-620 colon,> 100 µM
same,TGI,DU-145 prostate,> 100 µM
same,TGI,MOLT-4 leukemia,76.2 µM
same,TGI,OVCAR-4 ovarian,> 100 µM
same,TGI,LOX IMVI melanoma,> 100 µM
same,TGI,EKVX NSCLC,79.2 µM
same,TGI,HCT-15 colon,> 100 µM
same,TGI,SNB-19 CNS,> 100 µM
same,TGI,IGROV1 ovarian,> 100 µM
same,TGI,786-0 renal,> 100 µM
same,TGI,HS 578T breast,> 100 µM
same,TGI,MALME-3M melanoma,> 100 µM
same,TGI,ACHN renal,> 100 µM
same,TGI,T-47D breast,> 100 µM
same,TGI,CAKI-1 renal,> 100 µM
same,TGI,A549 NSCLC,> 100 µM
CCCCCC(/C=C/C1CCC(=O)C1)OCOCCOC (stereo not given),TGI,KM12 colon,> 100 µM
same,TGI,NCI-H460 lung,> 100 µM
same,TGI,SN12C renal,> 100 µM
same,TGI,UO-31 renal,58.5 µM
same,TGI,BT-549 breast,> 71 µM
same,TGI,SK-MEL-5 melanoma,> 100 µM
same,TGI,SK-MEL-2 melanoma,> 100 µM
same,TGI,NCI-H23 lung,> 100 µM
same,TGI,SF-295 CNS,> 100 µM
same,TGI,RPMI-8226 leukemia,60.3 µM
same,TGI,HT29 colon,67.5 µM
same,TGI,U251 CNS,> 100 µM
same,TGI,OVCAR-8 ovarian,> 95.4 µM
same,TGI,HL-60(TB) leukemia,> 100 µM
same,TGI,A498 renal,99.3 µM
same,TGI,SF-268 CNS,> 71.7 µM
same,TGI,HCT-116 colon,> 73.6 µM
same,TGI,TK-10 renal,> 100 µM
same,TGI,OVCAR-5 ovarian,> 100 µM
same,TGI,MDA-N,> 100 µM
same,TGI,SK-OV-3 ovarian,> 100 µM
same,TGI,NCI-H522 lung,36 µM
same,TGI,MDA-MB-231 breast,> 100 µM
same,TGI,SR leukemia,> 81.8 µM
same,TGI,MCF7 breast,> 100 µM
same,TGI,MDA-MB-435,> 100 µM
same,TGI,HOP-92 NSCLC,84.5 µM
same,TGI,SK-MEL-28 melanoma,> 100 µM
same,TGI,UACC-257 melanoma,> 66.7 µM
same,TGI,CCRF-CEM leukemia,> 92.2 µM
same,TGI,RXF 393 renal,> 100 µM
same,TGI,M14 melanoma,> 100 µM
same,TGI,SF-539 CNS,46.3 µM
same,TGI,K-562 leukemia,> 86.7 µM
same,TGI,UACC-62 melanoma,> 100 µM
same,TGI,HOP-62 NSCLC,> 100 µM
same,TGI,OVCAR-3 ovarian,> 100 µM
same,TGI,PC-3 prostate,> 100 µM
same,TGI,NCI-H226 lung,> 100 µM
same,TGI,SW-620 colon,> 81.8 µM
same,TGI,DU-145 prostate,> 100 µM
same,TGI,MOLT-4 leukemia,44.5 µM
same,TGI,OVCAR-4 ovarian,> 100 µM
same,TGI,LOX IMVI melanoma,> 71 µM
same,TGI,EKVX NSCLC,> 100 µM
same,TGI,HCT-15 colon,> 100 µM
same,TGI,SNB-19 CNS,> 100 µM
same,TGI,IGROV1 ovarian,> 100 µM
same,TGI,NCI/ADR-RES ovarian,99.2 µM
same,TGI,786-0 renal,42.5 µM
same,TGI,SNB-75 CNS,57.8 µM
same,TGI,MALME-3M melanoma,> 100 µM
same,TGI,ACHN renal,58.6 µM
same,TGI,HCC-2998 colon,> 100 µM
same,TGI,T-47D breast,> 100 µM
same,TGI,COLO 205 colon,> 100 µM
same,TGI,CAKI-1 renal,> 76.9 µM
same,TGI,A549 NSCLC,> 100 µM
